Assays:
Format in all cases: in vivo
[1] = test system: ABUTH, Abutilon theophrasti (velvetleaf); assay: Greenhouse postemergence herbicidal effect (visual injury, 20-22 d)
From the text: (§1) Greenhouse Trial Methodology—Evaluation of Postemergence Herbicidal Effect
(§2) Seeds of the desired test plant species were planted in a 90:10% v/v (volume/volume) mixture of PRO-MIX® BX (Premier Tech Horticulture, Quakertown, Pa., USA) and PROFILE®GREENS GRADE™ (Profile Products LLC, Buffalo Grove, Ill., USA) planting mixture, which typically has a pH of 5.2 to 6.2 and an organic matter content of at least 50 percent, in plastic pots with a surface area of 103.2 square centimeters (cm^2). In some aspects, to help ensure good germination and healthy plants, a fungicide treatment and/or other chemical or physical treatment was applied. The plants were grown for 7-36 days (d) in a greenhouse with an approximate 14-hour (h) photoperiod which was maintained at about 23° C. during the day and 22° C. during the night. Nutrients and water were added on a regular basis and supplemental lighting was provided with overhead metal halide 1000-Watt lamps as necessary. The plants were employed for testing when they reached the second or third true leaf stage.
(§3) Emulsifiable concentrates of each of each pyridine carboxylate herbicide (Compound A or Compound B) were prepared at 100 grams acid equivalent per liter (g ae/L). The emulsifiable concentrates also included a safener, cloquintocet-mexyl, at 120 grams active ingredient per liter (g ai/L), unless otherwise noted below. An aliquot of each emulsifiable concentrate was placed in a 25 mL glass vial and diluted with an aqueous mixture of 1.25% (v/v) ACTIROB® B esterified rapeseed oil (Bayer Crop Science, Research Triangle Park, N.C., USA) or MSO® Concentrate with LECI-TECH® methylated soybean oil (Loveland Products, Loveland, Colo., USA) to obtain concentrated stock solutions at the highest application rate for each herbicide, based upon a 12 milliliter (mL) application volume at a rate of 187 liters per hectare (L/ha). The concentrated stock solutions were further diluted with an aqueous mixture of 1.25% v/v ACTIROB® B or MSO® Concentrate with LECI-TECH® to obtain stock solutions at reduced application rates for each herbicide. Spray solutions of the herbicide combinations (Compound A or Compound B plus PS-II herbicide and optional HPPD herbicide) were prepared by adding weighed amounts or aliquots of the PS-II herbicide and optional HPPD herbicide to the stock solutions of Compound A or Compound B to form 12-mL spray solutions in two- or three-way combinations.
(§4) The spray solutions were applied to the plant material with an overhead Mandel track sprayer equipped with 8002E nozzles calibrated to deliver 187 L/ha over an application area of 0.503 square meters (m^2) at a spray height of 18 inches ([…] centimeters (cm)) above the average plant canopy. Control plants were sprayed in the same manner with the solvent blank. All pyridine carboxylate herbicide (component a) application rates are given as “g ae/ha” and all PS II inhibitor herbicide (component b) and HPPD inhibitor herbicide (component c) application rates are given as “g ai/ha.”
(§5) The treated plants and control plants were placed in a greenhouse as described above and watered by sub-irrigation to prevent wash-off of the test compounds. After 20-22 d, the condition of the test plants as compared with that of the control plants was determined visually and scored on a scale of 0 to 100 percent where 0 corresponds to no injury and 100 corresponds to complete kill.

[2] = test system: BRSNN, Brassica napus (spring rape); assay: as above
From the text: as §1, §2, §3, §4, §5

[3] = test system: CHEAL, Chenopodium album L. (common lambsquarters); assay: as above
From the text: as §1, §2, §3, §4, §5

[4] = test system: CIRAR, Cirsium arvense (Canada thistle); assay: as above
From the text: as §1, §2, §3, §4, §5

[5] = test system: EPHHL, Euphorbia heterophylla (poinsettia); assay: as above
From the text: as §1, §2, §3, §4, §5

[6] = test system: KCHSC, Kochia scoparia (kochia); assay: as above
From the text: as §1, §2, §3, §4, §5

[7] = test system: POLCO, Polygonum convolvulus (wild buckwheat); assay: as above
From the text: as §1, §2, §3, §4, §5

[8] = test system: SETFA, Setaria faberi (giant foxtail); assay: as above
From the text: as §1, §2, §3, §4, §5

[9] = test system: STEME, Stellaria media (chickweed); assay: as above
From the text: as §1, §2, §3, §4, §5

[10] = test system: VIOTR, Viola tricolor (wild pansy); assay: as above
From the text: as §1, §2, §3, §4, §5

[11] = test system: AMARE, Amaranthus retroflexus (pigweed); assay: as above
From the text: as §1, §2, §3, §4, §5

[12] = test system: BRSNW, Brassica napus (winter rape); assay: as above
From the text: as §1, §2, §3, §4, §5

[13] = test system: MATCH, Matricaria chamomilla (wild chamomile); assay: as above
From the text: as §1, §2, §3, §4, §5

[14] = test system: SASKR, Salsola kali (Russian thistle); assay: as above
From the text: as §1, §2, §3, §4, §5

[15] = test system: SINAR, Sinapis arvensis (wild mustard); assay: as above
From the text: as §1, §2, §3, §4, §5

[16] = test system: HORVS, Hordeum vulgare (spring barley); assay: Greenhouse postemergence phytotoxicity on crop (visual injury, 20-22 d)
From the text: as §1, §2, §3, §4, §5

[17] = test system: TRZAS, Triticum aestivum (spring wheat); assay: as above
From the text: as §1, §2, §3, §4, §5

[18] = Fallopia convolvulus, post-emergence, read-out: visual injury Obs

## C#CCOC(=O)c1nc(-c2ccc3cc[nH]c3c2F)c(F)c(N)c1Cl [Compound B, propargyl 4-amino-3-chloro-5-fluoro-6-(7-fluoro-1H-indol-6-yl)pyridine-2-carboxylate]
[1]; 7.5 g ae/ha alone
  visual injury: 68%
[1]; 10 g ae/ha alone
  visual injury: 68%
[1]; ABUTH, Compound B 10 g/ha
  % visual injury, Obs: 68%
[2]; 7.5 g ae/ha alone
  visual injury: 68%
[2]; 10 g ae/ha alone
  visual injury: 85%
[3]; 7.5 g ae/ha alone
  visual injury: 85%
[3]; 10 g ae/ha alone
  visual injury: 90%
[3]; CHEAL, Compound B 10 g/ha
  % visual injury, Obs: 90%
[4]; 7.5 g ae/ha alone
  visual injury: 45%
[4]; 10 g ae/ha alone
  visual injury: 45%
[4]; CIRAR, Compound B 10 g/ha
  % visual injury, Obs: 45%
[5]; 7.5 g ae/ha alone
  visual injury: 83%
[5]; 10 g ae/ha alone
  visual injury: 99%
[5]; EPHHL, Compound B 10 g/ha
  % visual injury, Obs: 99%
[6]; 7.5 g ae/ha alone
  visual injury: 68%
[6]; 10 g ae/ha alone
  visual injury: 80%
[6]; KCHSC, Compound B 10 g/ha
  % visual injury, Obs: 80%
[7]; 7.5 g ae/ha alone
  visual injury: 73%
[7]; 10 g ae/ha alone
  visual injury: 80%
[7]; POLCO, Compound B 10 g/ha
  % visual injury, Obs: 80%
[8]; 7.5 g ae/ha alone
  visual injury: 70%
[8]; 10 g ae/ha alone
  visual injury: 55%
[8]; SETFA, Compound B 10 g/ha
  % visual injury, Obs: 55%
[9]; 7.5 g ae/ha alone
  visual injury: 100%
[9]; 10 g ae/ha alone
  visual injury: 93%
[9]; STEME, Compound B 10 g/ha
  % visual injury, Obs: 93%
[10]; 7.5 g ae/ha alone
  visual injury: 10%
[10]; 10 g ae/ha alone
  visual injury: 40%
[10]; VIOTR, Compound B 10 g/ha
  % visual injury, Obs: 40%

## CCC(C)n1c(=O)[nH]c(C)c(Br)c1=O (stereo not shown) [Bromacil, 5-bromo-3-sec-butyl-6-methyluracil]
[11]; 900 g ai/ha alone
  visual injury Obs: 20%
[12]; 900 g ai/ha alone
  visual injury Obs: 5%
[3]; 900 g ai/ha alone
  visual injury Obs: 53%
[4]; 900 g ai/ha alone
  visual injury Obs: 18%
[6]; 900 g ai/ha alone
  visual injury Obs: 91%
[13]; 900 g ai/ha alone
  visual injury Obs: 5%
[7]; [18]
  pest or weed control at 900 g/ha: 10%
[14]; 900 g ai/ha alone
  visual injury Obs: 25%
[15]; 900 g ai/ha alone
  visual injury Obs: 35%
[16]; 900 g ai/ha alone
  visual injury Obs: 10%
[17]; 900 g ai/ha alone
  visual injury Obs: 0%

## CC(C)c1nn(C(=O)NC(C)(C)C)c(=O)n1N [Amicarbazone, 4-amino-N-tert-butyl-4,5-dihydro-3-isopropyl-5-oxo-1H-1,2,4-triazole-1-carboxamide]
[2]; 175 g ai/ha alone
  visual injury Obs: 38%
[3]; 175 g ai/ha alone
  visual injury Obs: 38%
[6]; 175 g ai/ha alone
  visual injury Obs: 25%
[7]; Fallopia convolvulus, post-emergence, 175 g ai/ha alone, read-out: visual injury Obs
  pest or weed control at 175 g/ha: 10%
[14]; 175 g ai/ha alone
  visual injury Obs: 0%
[15]; 175 g ai/ha alone
  visual injury Obs: 25%

## CN(C)C(=O)Nc1ccc(Cl)c(Cl)c1 [Diuron, 3-(3,4-dichlorophenyl)-1,1-dimethylurea]
[11]; 220 g ai/ha alone
  visual injury Obs: 98%
[12]; 220 g ai/ha alone
  visual injury Obs: 5%
[3]; 220 g ai/ha alone
  visual injury Obs: 100%
[4]; 220 g ai/ha alone
  visual injury Obs: 40%
[6]; 220 g ai/ha alone
  visual injury Obs: 90%
[13]; 220 g ai/ha alone
  visual injury Obs: 15%
[7]; [18]
  pest or weed control at 220 g/ha: 5%
[14]; 220 g ai/ha alone
  visual injury Obs: 40%
[15]; 220 g ai/ha alone
  visual injury Obs: 5%
[16]; 220 g ai/ha alone
  visual injury Obs: 10%
[17]; 220 g ai/ha alone
  visual injury Obs: 0%

## CCOC(=O)Nc1cccc(OC(=O)Nc2ccccc2)c1 [Desmedipham, 3-ethoxycarbonylaminophenyl phenylcarbamate]
[11]; 162.5 g ai/ha alone
  visual injury Obs: 15%
[12]; 162.5 g ai/ha alone
  visual injury Obs: 0%
[3]; 162.5 g ai/ha alone
  visual injury Obs: 0%
[4]; 162.5 g ai/ha alone
  visual injury Obs: 10%
[6]; 162.5 g ai/ha alone
  visual injury Obs: 0%
[13]; 162.5 g ai/ha alone
  visual injury Obs: 0%
[7]; [18]
  pest or weed control at 162.5 g/ha: 0%
[14]; 162.5 g ai/ha alone
  visual injury Obs: 0%
[15]; 162.5 g ai/ha alone
  visual injury Obs: 0%
[16]; 162.5 g ai/ha alone
  visual injury Obs: 0%
[17]; 162.5 g ai/ha alone
  visual injury Obs: 0%

## CSc1nnc(C(C)(C)C)c(=O)n1N [Metribuzin, 4-amino-6-tert-butyl-3-methythio-1,2,4-triazin-5(4H)-one]
[11]; 25 g ai/ha alone
  visual injury: 0%
[12]; 25 g ai/ha alone
  visual injury: 0%
[3]; 25 g ai/ha alone
  visual injury: 3%
[4]; 25 g ai/ha alone
  visual injury: 3%
[6]; 25 g ai/ha alone
  visual injury: 0%
[13]; 25 g ai/ha alone
  visual injury: 0%
[7]; 25 g ai/ha alone
  visual injury: 0%
[14]; 25 g ai/ha alone
  visual injury: 0%
[15]; 25 g ai/ha alone
  visual injury: 18%
[16]; 25 g ai/ha alone
  visual injury: 0%
[17]; 25 g ai/ha alone
  visual injury: 0%

Reference: US20220007644A1, “COMPOSITIONS COMPRISING PYRIDINE CARBOXYLATE HERBICIDES WITH PHOTOSYSTEM II AND OPTIONAL HPPD INHIBITOR HERBICIDES” (Corteva Agriscience LLC, priority 2018, published 2022)
